Test results published in the supplement of paper PMC10307832.

Legend:
Experiment in all cases: relative viability (nuclei count vs DMSO), 5 days (fraction); higher = more cells survive
[1] = compound: NCC(=O)Nc1ccc(-n2nc(C(F)(F)F)cc2-c2ccc3c(ccc4ccccc43)c2)cc1 + Nc1ncn([C@H]2C[C@H](O)[C@@H](CO)O2)c(=O)n1 [Decitabine] (partner 2 µM)
How it was run: (§1)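 The day after seeding in 1536-well plates, lung cancer cell lines were treated by pin tool with a single drug, or with a fixed anchor-drug dose together with five library-drug doses (not always all listed) in √10 steps. After 5 days, a combined fix-and-stain solution (final 0.05% Triton X-100, 1% formaldehyde, 1 ug/ml Hoechst) was added. Nuclei counted on 4× images gave relative viability as treated counts over vehicle counts, reported as the median of duplicate plates.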

[2] = compound: C1CSC2=C(C(=O)N1)SC3=C2C=C(C=C3)O [kb NB 142-70] + CC(=O)c1c(C)c2cnc(Nc3ccc(N4CCNCC4)cn3)nc2n(C2CCCC2)c1=O [Palbociclib] (partner 0.5 µM)
How it was run: as §1

[3] = compound: NCC(=O)Nc1ccc(-n2nc(C(F)(F)F)cc2-c2ccc3c(ccc4ccccc43)c2)cc1 + Cc1nc(NC(=O)N2CCC[C@H]2C(N)=O)sc1-c1ccnc(C(C)(C)C(F)(F)F)c1 [Alpelisib] (partner 2 µM)
How it was run: as §1

[4] = compound: NCC(=O)Nc1ccc(-n2nc(C(F)(F)F)cc2-c2ccc3c(ccc4ccccc43)c2)cc1 + CS(=O)(=O)CCNCc1ccc(-c2ccc3ncnc(Nc4ccc(OCc5cccc(F)c5)c(Cl)c4)c3c2)o1 [Lapatinib] (partner 2 µM)
How it was run: as §1

Row | Cell Line | relative viability ([1]; first compound 0.02 µM) | relative viability ([1]; first compound 0.06325 µM) | relative viability ([1]; first compound 0.2 µM) | relative viability ([1]; first compound 0.6325 µM) | relative viability ([1]; first compound 2 µM) | relative viability ([2]; first compound 0.1 µM) | relative viability ([2]; first compound 1 µM) | relative viability ([2]; first compound 3.162 µM) | relative viability ([3]; first compound 0.02 µM) | relative viability ([3]; first compound 0.06325 µM) | relative viability ([3]; first compound 0.2 µM) | relative viability ([3]; first compound 0.6325 µM) | relative viability ([3]; first compound 2 µM) | relative viability ([4]; first compound 0.02 µM) | relative viability ([4]; first compound 0.06325 µM) | relative viability ([4]; first compound 0.2 µM) | relative viability ([4]; first compound 0.6325 µM) | relative viability ([4]; first compound 2 µM)
1 | NCI-H1755 | 0.692 | 0.739 | 0.686 | 0.701 | 0.727 | 0.466 | 0.411 | 0.44 | 0.913 | 0.93 | 0.917 | 0.884 | 0.955 | 1.01 | 1 | 1.07 | 1.02 | 1.06
2 | HCC-78 | 0.788 | 0.763 | 0.698 | 0.675 | 0.658 | 0.446 | 0.443 | 0.412 | 0.361 | 0.422 | 0.376 | 0.306 | 0.397 | 0.819 | 1.04 | 0.745 | 0.742 | 0.342
3 | IA-LM | – | – | – | – | – | – | – | – | 0.776 | 0.715 | 0.937 | 0.784 | 0.782 | 0.802 | 0.823 | 0.757 | 0.85 | 0.717
4 | NCI-H322M | 0.723 | 0.732 | 0.716 | 0.637 | 0.724 | 0.541 | 0.511 | 0.505 | 0.756 | 0.772 | 0.824 | 0.657 | 0.831 | 0.617 | 0.62 | 0.681 | 0.561 | 0.558
5 | NCI-H3122 | 0.445 | 0.418 | 0.495 | 0.448 | 0.435 | 0.181 | 0.199 | 0.187 | 0.852 | 0.847 | 0.801 | 0.823 | 0.746 | 1.08 | 1.05 | 1.01 | 0.988 | 0.934
6 | COR-L23 | 0.437 | 0.434 | 0.475 | 0.413 | 0.309 | 0.324 | 0.317 | 0.186 | 0.895 | 0.822 | 0.898 | 0.722 | 0.745 | 0.97 | 0.997 | 1.2 | 0.938 | 0.659
7 | NCI-H2087 | 0.249 | 0.245 | 0.246 | 0.282 | 0.251 | 0.282 | 0.252 | 0.215 | 1.14 | 0.82 | 1.06 | 1.16 | 0.945 | 1.02 | 0.988 | 1.02 | 1.11 | 1.15
8 | LC-2-ad | 0.808 | 0.779 | 0.831 | 0.789 | 0.774 | 0.457 | 0.475 | 0.513 | 1.07 | 0.947 | 0.945 | 0.883 | 0.959 | 0.967 | 0.932 | 1.02 | 0.96 | 1.06
9 | NCI-H1915 | 0.272 | 0.275 | 0.276 | 0.262 | 0.256 | 0.498 | 0.52 | 0.343 | 1.08 | 1.08 | 1.13 | 1.02 | 1.04 | 0.922 | 0.939 | 0.942 | 0.95 | 0.996
10 | NCI-H1793 | 0.518 | 0.459 | 0.549 | 0.494 | 0.487 | 0.301 | 0.329 | 0.357 | 0.682 | 0.734 | 0.72 | 0.666 | 0.736 | 0.659 | 0.684 | 0.743 | 0.886 | 0.84
11 | NCI-H2023 | 0.229 | 0.211 | 0.23 | 0.209 | 0.219 | 0.389 | 0.379 | 0.257 | 0.606 | 0.625 | 0.609 | 0.577 | 0.596 | 0.747 | 1.2 | 0.476 | 0.838 | 0.74
12 | ChaGo-K-1 | 0.55 | 0.526 | 0.506 | 0.522 | 0.549 | 0.872 | 0.803 | 0.838 | – | – | – | – | – | – | – | – | – | –
13 | NCI-H2342 | 0.653 | 0.775 | 0.788 | 0.709 | 0.744 | 0.547 | 0.497 | 0.589 | – | – | – | – | – | – | – | – | – | –
14 | NCI-H1299 | – | – | – | – | – | – | – | – | 1.05 | 1.11 | 1.09 | 1.08 | 1.03 | 0.987 | 0.943 | 1.02 | 0.952 | 0.972
15 | NCI-H1650 | 0.381 | 0.459 | 0.431 | 0.355 | 0.508 | 0.362 | 0.39 | 0.321 | – | – | – | – | – | 0.812 | 0.797 | 0.472 | 0.801 | 0.929
16 | SW 900 | 0.43 | 0.452 | 0.607 | 0.406 | 0.444 | 0.553 | 0.463 | 0.458 | – | – | – | – | – | – | – | – | – | –
17 | NCI-H596 | 1.13 | 1.01 | 1.07 | 0.995 | 1.12 | – | – | – | 0.63 | 0.5 | 0.483 | 0.553 | 0.505 | 1.13 | 1.09 | 1.11 | 1.09 | 1.19
18 | NCI-H1648 | 0.577 | 0.515 | 0.479 | 0.549 | 0.445 | 0.276 | 0.275 | 0.206 | – | – | – | – | – | – | – | – | – | –
19 | NCI-H522 | 0.638 | 0.619 | 0.673 | 0.681 | 0.608 | 0.988 | 0.789 | 0.77 | – | – | – | – | – | – | – | – | – | –
20 | A549 | 0.263 | 0.249 | 0.2 | 0.257 | 0.31 | – | – | – | 0.714 | 0.84 | 0.898 | 0.747 | 0.657 | 1.02 | 1.02 | 0.994 | 1.03 | 0.95
21 | NCI-H1563 | – | – | – | – | – | – | – | – | 0.969 | 0.837 | 0.962 | 0.928 | 1.05 | 0.841 | 0.998 | 0.758 | 0.945 | 0.909
22 | LCLC-103H | 0.735 | 0.742 | 0.809 | 0.763 | 0.748 | 0.47 | 0.475 | 0.504 | 0.924 | 0.916 | 1.03 | 0.917 | 0.985 | – | – | – | – | –
23 | NCI-H441 | 0.274 | 0.276 | 0.225 | 0.266 | 0.248 | 0.237 | 0.209 | 0.169 | 0.906 | 0.715 | 0.869 | 1.01 | 0.654 | – | – | – | – | –
